According to paper PMC9299485, “4‐Iodopyrimidine Labeling Reveals Nuclear Translocation and Nuclease Activity for Both MIF and MIF2” (Chemistry (Weinheim an Der Bergstrasse, Germany), 2021):
Where two headings read alike, the source gives them in different places.

Legend:
MIF2 [1] = target: T1, MIF2 (Homo sapiens, UniProt P30046); assay: MIF2 tautomerase activity inhibition (PP substrate, UV 300 nm); assay type: biochemical
T1 construct: made in house; host or cells: E. coli BL21(DE3), pET20b(+)
Experimental: 2. Preparation of recombinant MIF and MIF2. […]
Purity of obtained protein was tested by SDS-PAGE and Coomassie staining. […]
(§1) The detailed procedure to produce recombinant human MIF2 was reported in our previous publications.[7] Gene sequences of the human MIF2 gene (Invitrogen) was adapted to bacterial expression. After subcloning into a pET20b(+) expression vector, IPTG-induced expression was performed in E.coli strain BL21(DE3). MIF2 proteins were overproduced overnight and harvested cells were resuspended and sonicated. The soluble fraction was puriﬁed using a Q sepharose column (GE Healthcare) with a gradient of NaCl. The fractions containing MIF2 were brought to 1.7 M ammonium sulfate and loaded on a phenyl sepharose column (GE Healthcare) and eluted with a gradient to 0 M ammonium sulfate in a 20 mM sodium phosphate buffer, pH 8.0. Finally, the proteins were purified by size exclusion chromatography on a Superdex75 column (GE Healthcare) in 20 mM sodium phosphate buffer, pH 8.0, with an elution volume characteristic for trimeric MIF2. The collected protein was concentrated using a VivaSpin centrifugation column with a molecular weight cut off at 5000 D a (Sartorius Stedim Biotech GmbH). Purified proteins were aliquoted, snap frozen in liquid nitrogen, and stored at –80 °C. Purity of obtained protein was tested by SDS-PAGE and coomassie staining. The concentration of protein was determined using the Bradford a ssay.
(§2) 3.1 MIF and MIF2 Inhibition
(§3) The protocol for measuring inhibition of MIF or MIF2 tautomerase enzyme activity was described previously.[5] 500 nM MIF solution (180 µL) or 100 nM MIF2 solution (180 µL) in boric acid buffer ([…], pH 6.2) was mixed with 20 mM EDTA solution (10 µL) in demineralized water. A solution of the desired compound dissolved in DMSO (10 µL) or blank DMSO (10 µL) was added. The resulting mixture was preincubated at room temperature for 10 minutes.
(§4) Subsequently, 50 µL of this mixture was mixed with 50 µL of a 1 mM 4-HPP solution for MIF or 1 mM PP solution for MIF2 in ammonium acetate buffer (50 mM, pH 6.0). Thereafter, MIF or MIF2 tautomerase activity was monitored by measuring the increase of UV absorbance at 306 nm for MIF or 300 nm for MIF2 over time. The MIF or MIF2 tautomerase activity of the mixture with blank DMSO dilution was set to 100% enzyme activity. Noncatalyzed conversion of the substrate in the mixture without MIF or MIF2 was set to 0%. The data acquired from the first 3 minutes of the measurement were used to calculate the initial conversion speed. All experiments were performed in triplicate and data processing was done using the program […]
(§5) Table S1. IC50 values (10 min) and inactivation parameters of synthesized compounds.
(§6) (1 picture or pasted object on this page, not shown here)

MIF [2] = target: T2, MIF (Homo sapiens, UniProt P14174); assay: MIF tautomerase activity inhibition (4-HPP substrate, UV 306 nm); assay type: biochemical; details: for potency relative to corresponding chloro-substituted intermediate: iodo compound vs chloro intermediate
T2 construct: His tag (C); made in house; host or cells: Escherichia coli BL21 (DE3), pET-20b(+)
T2 sequence (P14174 2-115 limits assumed): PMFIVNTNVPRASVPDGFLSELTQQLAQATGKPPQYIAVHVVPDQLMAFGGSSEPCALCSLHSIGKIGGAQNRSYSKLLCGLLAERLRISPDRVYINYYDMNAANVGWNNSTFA
Experimental: 2. Preparation of recombinant MIF and MIF2.
The detailed procedure to produce C-terminal His-tagged recombinant human MIF was reported in our previous publications.[1,4,5] rhMIF was expressed through transforming a pET-20b(+) plasmid containing the target gene into Escherichia coli BL21 (DE3) according to literature procedures.[6] Overexpression was performed and cells were collected and sonicated.
The obtained supernatant was applied to a medium pressure chromatography system (Biologic Duoflow) equipped with a His trap HP (5 mL) column with detection at 280 nm for the eluent.
The column was washed with a binding buffer containing 50 mM Tris and 10% glycerol at pH 7.4 and eluted with elution buffer containing 500 mM imidazole, 50 mM Tris, 10% glycerol at pH 7.4. The pure fractions (as judged by SDS-PAGE) were pooled and subjected to a PD-10 column (GE healthcare) that was equilibrated with PBS buffer at pH 7.4 to remove the high concentration of imidazole. The collected MIF solution was divided into 50 µL aliquots and stored at –80 °C. Purity of obtained protein was tested by SDS-PAGE and Coomassie staining.
The concentration of protein was determined using the Bradford assay.
as §1, §2, §3, §4, §5, §6

MIF [3] = target: T2, MIF; assay: Labeling of recombinant MIF by probe 8, SDS-PAGE in-gel fluorescence, competition; assay type: binding; details: pre-treatment of MIF with competitor, Figure 2C, D
Experimental: (§7) 4. Purified protein labeling and Mass spectra
(§8) 4.1 MIF or MIF2 labeling with probe 8
(§9) MIF or MIF2 were diluted to desired concentration with PBS buffer and incubated with probe
(§10) 8 at corresponding concentration and for corresponding time. Subsequently, the mixture was
(§11) denatured (99 °C, 10 min). Labeled protein and free probe were separated by 12% Bis-Tris gel
(§12) (Bio-Rad Laboratories, #4561084). Probe 8 labeled protein was visualized using in-gel
(§13) 4.2 MIF or MIF2 labeling and mass spectra
(§14) Figure S2. Mass spectra of labeled MIF2. (A) Native MIF2 and probe 8 (B) or probe 9 (C)
as §6

MIF2 [4] = target: T1, MIF2; assay: Labeling of recombinant MIF2 by probe 8, SDS-PAGE in-gel fluorescence, competition; assay type: binding; details: Figure 2G
Experimental: as §7, §8, §9, §10, §11, §12, §13, §14, §6

MIF [5] = target: T2, MIF; assay: Kitz-Wilson inactivation kinetics on MIF tautomerase; assay type: biochemical; details: for KI (inactivation) / kinact: Kitz-Wilson analysis, ±SD, n=3; for KI (inactivation): read-out: KI MIF (inhibition constant); for kinact: read-out: kinact MIF (rate of enzyme inactivation) (converted)
Experimental: (§15) In order to derive the kinetic parameters for inactivation of MIFand MIF2, we employed the approach described by Kitz and Wilson. Briefly, four different concentrations of the inhibitor with four different pre-incubation times were selected. The assay conditions are described above with the difference in incubation time.
(§16) For the data analysis, the pre-incubation times for the different concentration of the inhibitor versus the remaining enzyme activity were plotted, so from the linear regression the slope of each concentration of the probe was obtained ( Table S3). Then the 1/slope versus 1/[inhibitor] were plotted (Figure 4) and from the linear regression line ki was derived from the 1/y -intercept and derived from the slope times the ki as described by Kitz and Wilson.
For example, for the probe 8 the equation is: Y = 7,476*X + 5,069
So, the kinact and the KI values are: kinact =1/5,069 =0.20 min-1
(also on this page, place not known: -1 0 1 2 3 0 50 100 log [FM011] (µM) DDT (%) -1 0 1 2 3 0 50 100 log [ZP308] (µM) DDT activity (%) 0.0 0.5 1.0 1.5 2.0 0 50 100 log [ZP307] (µM) DDT activity (%) 1.4 1.6 1.8 2.0 2.2 0 50 100 log [FM031] (µM) DDT activity (%) pre -incubation cond itions pre -incubation activity o f (Table 1/y-intercept) […]
(§17) Table S4. Kinetics studies results.
(§18) Time-dependent inhibition Kitz and Wilson curve […]
ln (MIF tautomerase activity %)
Time-dependent inhibition on MIF Y = 7,476*X + 5,069
Time-dependent inhibition on MIF Y = 12,07*X + 4,234 […]
ln (MIF2 tautomerase activity %)
(§19) Time-dependent inhibition on MIF2 Y = 299,5*X + 11,14 […]

MIF2 [6] = target: T1, MIF2; assay: Kitz-Wilson inactivation kinetics on MIF2 tautomerase; assay type: biochemical; details: Kitz-Wilson analysis, ±SD, n=3
Experimental: as §15, §16
For example, for the probe 8 the equation is: Y = 7,476*X + 5,069 […]
as §17, §18
ln (MIF tautomerase activity %) […]
as §19

[7] = Table S1, 10 min, read-out: IC50 (µM) MIF2
[8] = Table S1, 10 min, read-out: IC50 (µM) MIF
[9] = Table 1, tautomerase activity, mean±SD, n=3, read-out: IC50 MIF2
[10] = Table 1, tautomerase activity, mean±SD, n=3, read-out: IC50 MIF
[11] = Table 2, 10 min pre-incubation, ±SD, n=3, read-out: IC50 MIF2
[12] = Table 2, 10 min pre-incubation, ±SD, n=3, read-out: IC50 MIF

IC50 (MIF2 [1]; [7]) [µM]	IC50 (MIF [2]; [8]) [µM]	IC50 (MIF2 [1]; [9]) [µM]	IC50 (MIF [2]; [10]) [µM]	SMILES	further results
> 250	112			CC(C)c1nc(I)cc(-c2ccc(C(=O)O)cc2)n1 [Compound 11, 4-(6-Iodo-2-isopropylpyrimidin-4-yl)benzoic acid]	
		> 250	15 ± 7.5	O=C(O)c1ccc(-c2cc(I)nc(N3CCOCC3)n2)cc1 [Compound 4]	potency relative to corresponding chloro-substituted intermediate (MIF [2]; Table S1): at least two times more potent
		> 250	> 250	Cc1nc(I)cc(-c2ccc(C(=O)O)cc2)n1 [Compound 3]	
		125 ± 15	5 ± 0.46	O=C(O)c1ccc(-c2cc(I)ncn2)cc1 [Compound 2]	labeling of MIF by probe 8 after prior treatment with inhibitor (MIF [3]): abolished; labeling of MIF2 by probe 8 after pre-incubation with inhibitor (MIF2 [4]): outcompeted; potency relative to corresponding chloro-substituted intermediate (MIF [2]; Table S1): at least two times more potent
		> 250	59 ± 6.3	O=C(O)c1ccc(-c2cc(I)nc(-c3ccccc3)n2)cc1 [Compound 5, 4-(6-Iodo-2-phenylpyrimidin-4-yl)benzoic acid]	
103	95			Cc1nc(Cl)cc(-c2ccc(C(=O)O)cc2)n1 [Compound 3a]	IC50 (MIF2 [1]; Table S3 dose-inhibition curves (DDT activity), read-out: IC50 MIF2 tautomerase): 107 ± 6 µM; IC50 (MIF [2]; Table S2 dose-inhibition curves, read-out: IC50 MIF tautomerase): 72 ± 17 µM
> 250	174			O=C(O)c1ccc(-c2cc(Cl)nc(N3CCOCC3)n2)cc1 [Compound 4a]	

Continued, molecule first:

SMILES	IC50 (MIF2 [1]; [7]) [µM]	IC50 (MIF [2]; [8]) [µM]	IC50 (MIF2 [1]; [9]) [µM]	IC50 (MIF [2]; [10]) [µM]	further results
Cc1c(Cl)ncnc1-c1ccc(C(=O)O)cc1 [Compound 6a, 4-(6-Chloro-5-methylpyrimidin-4-yl)benzoic acid]	> 250	> 250			
Cc1c(I)ncnc1-c1ccc(C(=O)O)cc1 [Compound 6, 4-(6-Iodo-5-methylpyrimidin-4-yl)benzoic acid]			> 250	56 ± 12	potency relative to corresponding chloro-substituted intermediate (MIF [2]; Table S1): at least two times more potent
Clc1cc(-c2ccccc2)ncn1 [Compound 1a]	> 250	16			
Nc1ccc(-c2cc(Cl)ncn2)cc1 [Compound 8a, 4-(6-Chloropyrimidin-4-yl)aniline]	83	1.7			
O=[N+]([O-])c1ccc(-c2cc(Cl)ncn2)cc1 [Compound 7a, 4-Chloro-6-(4-nitrophenyl)pyrimidine]	> 250	1.4			
Ic1cc(-c2ccccc2)ncn1 [Compound 1, 4‐iodo‐6‐phenylpyrimidine, reference compound]			> 250	4 ± 0.98	potency relative to corresponding chloro-substituted intermediate (MIF [2]; Table S1): at least two times more potent
O=C(CCCC[C@@H]1SC[C@@H]2NC(=O)N[C@@H]21)NCCNC(=O)c1ccc(-c2cc(I)ncn2)cc1 [Compound 9]					improvement of potency for MIF2 inhibition compared to parental inhibitor 2 (MIF2 [1]): 2–6 factor; IC50 (MIF2 [1]; [11]): 78 ± 7.7 µM; KI on MIF relative to IC50 (MIF [5]; KI higher than IC50): about 10 times; KI (inactivation) (MIF [5]): 2.8 ± 0.67 µM; kinact (MIF [5]): 0.004 s⁻¹; kinact MIF2 (rate of enzyme inactivation) (MIF2 [6]): 0.061 ± 0.010 min⁻¹; KI (inactivation) (MIF2 [6]; read-out: KI MIF2 (inhibition constant)): 85 ± 8.6 µM; kinact (MIF2 [6]; read-out: kinact MIF2 (rate of enzyme inactivation)): 0.001 to 0.0015 s⁻¹; IC50 (MIF [2]; [12]): 0.24 ± 0.05 µM; IC50 (MIF [2]; approximate, read-out: IC50 on MIF): ~0.2 µM
O=C(O)c1ccc(-c2cc(Cl)ncn2)cc1 [Compound 2a]	> 250	17			
O=[N+]([O-])c1ccc(-c2cc(I)ncn2)cc1 [Compound 7, 4-Iodo-6-(4-nitrophenyl)pyrimidine]			> 250	0.63 ± 0.06	IC50 (MIF2 [1]; [11]): > 250 µM; KI (inactivation) (MIF [5]): 3.9 ± 0.7 µM; kinact (MIF [5]): 0.00467 s⁻¹; IC50 (MIF [2]; [12]): 0.63 ± 0.06 µM; selectivity for MIF over MIF2 (MIF [2]; from tautomerase IC50 values): > 400 fold; potency relative to corresponding chloro-substituted intermediate (MIF [2]; Table S1): at least two times more potent
CC(C)c1nc(Cl)cc(-c2ccc(C(=O)O)cc2)n1 [Compound 11a, 4-(6-Chloro-2-isopropylpyrimidin-4-yl)benzoic acid]	> 250	> 250			
O=C(O)c1ccc(-c2cc(Cl)nc(-c3ccccc3)n2)cc1 [Compound 5a, 4-(6-Chloro-2-phenylpyrimidin-4-yl)benzoic acid]	85	36			
